Values quoted from earlier work in patent US20260198506A1, “Broad-Spectrum Organic Fungicide & Bactericide” (Ecolution.AG LLC, priority 2020, published 2026).

Tested on: Gram-positive bacteria
Conditions: due to outer cell membrane impermeability of Gram-negatives

O=C(O)C1=C[C@@H](O)[C@@H](O)[C@H](O)C1 [shikimic acid]
antibacterial activity spectrum: active only against Gram-positive bacteria
